{
  "source": "BindingDB's records for doi:10.1021/acs.jmedchem.1c00742",
  "about": "(H. Lee Moffitt Cancer Center and Research Institute, 2021)",
  "molecular_target": "T1, B-cell CLL/lymphoma 9 protein (Homo sapiens, UniProt O00512)",
  "T1 sequence (O00512 whole entry)": "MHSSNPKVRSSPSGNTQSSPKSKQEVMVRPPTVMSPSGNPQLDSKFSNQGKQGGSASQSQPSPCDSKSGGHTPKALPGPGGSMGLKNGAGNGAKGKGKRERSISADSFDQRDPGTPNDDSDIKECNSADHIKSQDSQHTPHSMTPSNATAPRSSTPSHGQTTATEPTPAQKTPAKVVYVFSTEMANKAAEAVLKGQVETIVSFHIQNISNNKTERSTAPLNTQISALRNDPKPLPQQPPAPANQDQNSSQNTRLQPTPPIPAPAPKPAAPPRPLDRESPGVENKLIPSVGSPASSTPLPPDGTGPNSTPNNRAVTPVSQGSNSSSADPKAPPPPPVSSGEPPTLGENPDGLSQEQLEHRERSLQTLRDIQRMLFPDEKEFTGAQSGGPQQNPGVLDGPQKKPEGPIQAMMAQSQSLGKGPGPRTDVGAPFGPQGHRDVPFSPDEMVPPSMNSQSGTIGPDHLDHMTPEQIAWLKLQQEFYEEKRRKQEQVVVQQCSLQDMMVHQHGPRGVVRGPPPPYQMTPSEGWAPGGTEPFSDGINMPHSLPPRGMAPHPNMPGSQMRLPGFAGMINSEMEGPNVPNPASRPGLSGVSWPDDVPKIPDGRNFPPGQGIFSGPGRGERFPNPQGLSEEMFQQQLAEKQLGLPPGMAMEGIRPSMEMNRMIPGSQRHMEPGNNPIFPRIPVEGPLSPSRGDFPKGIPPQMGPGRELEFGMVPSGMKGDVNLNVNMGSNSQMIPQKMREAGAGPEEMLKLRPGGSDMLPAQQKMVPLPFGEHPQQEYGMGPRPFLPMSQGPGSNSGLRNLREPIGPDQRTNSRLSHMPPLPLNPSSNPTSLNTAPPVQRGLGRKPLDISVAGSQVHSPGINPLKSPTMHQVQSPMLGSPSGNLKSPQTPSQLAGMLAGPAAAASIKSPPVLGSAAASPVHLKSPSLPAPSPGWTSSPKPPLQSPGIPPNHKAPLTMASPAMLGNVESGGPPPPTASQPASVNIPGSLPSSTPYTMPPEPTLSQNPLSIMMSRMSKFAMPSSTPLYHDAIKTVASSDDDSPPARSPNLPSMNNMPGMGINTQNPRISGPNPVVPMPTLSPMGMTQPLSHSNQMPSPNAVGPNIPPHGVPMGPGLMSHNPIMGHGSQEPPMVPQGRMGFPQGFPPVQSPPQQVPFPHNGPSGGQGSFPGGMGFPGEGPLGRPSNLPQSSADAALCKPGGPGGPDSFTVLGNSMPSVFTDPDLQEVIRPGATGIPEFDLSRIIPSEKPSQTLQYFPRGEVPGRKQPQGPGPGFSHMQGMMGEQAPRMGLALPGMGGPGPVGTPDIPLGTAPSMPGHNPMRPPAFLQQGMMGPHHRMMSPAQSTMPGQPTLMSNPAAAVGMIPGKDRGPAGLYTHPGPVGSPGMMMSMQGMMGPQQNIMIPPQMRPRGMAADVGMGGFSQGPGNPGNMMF",
  "assay": "Competitive binding affinity to C-terminal 6-His-tagged beta-catenin (1 to 781 residues) (unknown origin) expressed in Escherichia coli BL21 (DE3)- N-terminal biotinylated human BCL9 (350 to 375 residues) assessed as apparent dissociation constant incubated for 2 hrs by AlphaScreen assay",
  "data": [
    {"smiles": "CC(C)(Oc1cccc(N2CCC[C@@H](C(=O)N(CCOCCOCCNC(=O)CCCC[C@@H]3SC[C@@H]4NC(=O)N[C@@H]43)Cc3ccc(-c4cn[nH]c4)cc3)C2)c1)C(=O)N1CCNCC1", "values": [
      {"measurement": "Kd", "value": 770, "unit": "nM"}
    ]}
  ]
}
